For one data set, the system named is human cortical neurons. Briefly: Inhibition of toxicity of β-amyloid peptide to human neuronal cells (alamarBlue). As to conditions: 50 μM β-amyloid peptide, 2-3 days; on average where more than one duplicate experiment; compound concentration not stated. It is filed as cell-based. How it is done: (§1) The purpose of this test is to determine the effect of 3-indolyl-5-pyrazolone compounds on the toxicity of β-amyloid peptide to neuronal cells.
Primary Human Cortical Cell Culture
Primary human cortical cultures were prepared using a modification of the procedure described by Seubert, et al.^21 Following filtration through Nitex nylon screens, cortical tissue was resuspended in a trypsin/EDTA solution (0.05% trypsin+0.53 mM EDTA in HBSS; GIBCO Laboratories, Grand Island, N.Y., USA) and kept at 37° C. for 20 minutes. The trypsin was then inactivated by resuspending the cells in serum-containing medium (MEM/FBS: Modified Eagles' Medium (MEM) containing 1% glucose, 1 mM sodium pyruvate, 1 mM glutamine, and supplemented with 10% fetal bovine serum (GIBCO). Cells were then pelleted by centrifugation and resuspended in a chemically-defined medium (MEM/B27: MEM containing B27 supplement in place of FBS; GIBCO). Polyethyleneimine (PEI; Sigma Chemical Company, St. Louis, Mo., USA)-coated 6.4 mm (96-well) dishes were rinsed once with MEM/FBS, and then seeded at 0.75 to 1.25×10^5 cells per well in 0.1 mL MEM/B27. Cultures were maintained in a H2 O-saturated incubator with an atmosphere of 95% air/5% CO 2 at 37° C. The culture medium was exchanged twice weekly. Cell viability was visually assessed by phase contrast microscopy and quantified by measuring the reduction of alamarBlue™ (Alamar Biosciences, Inc., Sacramento, Calif., USA).
(§2) β-amyloid peptide stock solutions were prepared as 1 mM stocks in sterile, doubly distilled water immediately prior to addition to cultures. Rat cortical neurons were exposed to β-amyloid peptide by removing the culture medium and replacing it with DMEM/N2 (GIBCO Laboratories,Grand Island, N.Y., USA) containing 10 to 20 μM β-amyloid peptide. Human cortical neurons were exposed to test compound plus β-amyloid peptide by removing the culture medium and replacing it with MEM containing 50 μM β-amyloid peptide. Cultures were maintained for 2-3 days before neuronal survival was quantified using alamarBlue™.
(§3) The alamarBlue™ assay incorporates a fluorometric/colorimetric metabolic indicator (Alamar Biosciences, Inc. Sacramento, Calif., USA). Viable cells convert alamarBlue™ from an oxidized (non-fluorescent, blue) form to a reduced (fluorescent, red) form. Assays were preformed by replacing the culture media with a 10% alamarBlue™ solution in DMEM (rat cortical cultures) or MEM (human cortical cultures).

The next data set relates to rat cortical neurons. In words: Inhibition of toxicity of β-amyloid peptide to rat neuronal cells (alamarBlue). To be noted: 10 to 20 μM β-amyloid peptide, 2-3 days; on average where more than one duplicate experiment; compound concentration not stated. It is filed as cell-based. How it is done:
as §1
Primary rat cortical cultures were established from 18 day rat fetuses. Cortical tissue was dissociated by incubation in a trypsin/EDTA solution (0.05% trypsin+0.53 mM EDTA in HBSS; GIBCO Laboratories, Grand Island, N.Y., USA) for 20 minutes at 37° C. The trypsin was then inactivated by resuspending the cells in serum-containing medium (DMEM/FBS): Dulbecco's Modified Eagles' Medium (DMEM) containing 4.5 g/L glucose, 1 mM sodium pyruvate, 1 mM glutamine, 100 Units/mL penicillin, 100 μg/mL streptomycin, and supplemented with 10% heat-inactivated fetal bovine serum (GIBCO Laboratories, Grand Island, N.Y., USA). Cells were then pelleted by centrifugation and resuspended in a chemically-defined medium (DMEM/B27: DMEM containing B27 supplement; GIBCO Laboratories, Grand Island, N.Y., USA) in place of FBS. Polyethyleneimine (PEI; Sigma Chemical Company, St. Louis, Mo., USA)-coated 6.4 mm (96-well) dishes were timed once with DMEM/FBS, and then seeded at 0.75 to 1.25×10^5 cells per well in 0.1 mL DMEM/B27. Cultures were maintained in a H2 O-saturated incubator with an atmosphere of 90% air/10% CO2 at 37° C. Cell viability was visually assessed by phase contrast microscopy and quantified by measuring the reduction of alamarBlue™ (Alamar biosciences, Inc., Sacramento, Calif., USA) as described below. Serum replacement with B27 supplement yields nearly pure neuronal cultures as judged by immunocytochemistry for glial fibrillary acidic protein and neuron-specific enolase (Brewer, et al.^20)
as §2, §3

Data set [1] has as its system β-amyloid peptide production. In words: Cellular screen for inhibitors of β-amyloid production (ELISA, 293 751 SWE cells). The format is cell-based, human. As to conditions: 2 h pretreatment + 2 h, normalized for cytotoxicity (MTT), concentration not given. How it is done:
(§4) This screening assay employed cells (K293=human kidney cell line) which were stably transfected with the gene for amyloid precursor protein 751 (APP751) containing the double mutation Lys651 Met652 to Asn651 Leu652 (APP751 numbering) in the manner described in International Patent Application Publication No. 94/10569^1 and Citron et al.^16. This mutation is commonly called the Swedish mutation and the cells, designated as "293 751 SWE", were plated in Coming 96-well plates at 1.5-2.5×10^4 cells per well in Dulbecco's minimal essential media plus 10% fetal bovine serum. Cell number is important in order to achieve β-amyloid ELISA results within the linear range of the assay (~0.2 to 2.5 ng per mL).
Following overnight incubation at 37° C. in an incubator equilibrated with 10% carbon dioxide, media were removed and replaced with 200 μL of a substituted 3-indolyl-5-pyrazolone (drug) containing media per well for a two hour pretreatment period and cells were incubated as above.
At the end of the pretreatment period, the media were again removed and replaced with fresh drag containing media as above and cells were incubated for an additional two hours. After treatment, plates were centrifuged in a Beckman GPR at 1200 rpm for five minutes at room temperature to pellet cellular debris from the conditioned media. From each well, 100 μL of conditioned media or appropriate dilutions thereof were transferred into an ELISA plate precoated with antibody 266 against amino acids 13-28 of β-amyloid peptide as described in International Patent Application Publication No. 94/10569^1 and stored at 4° C. overnight. An ELISA assay employing labelled antibody 6C6 against amino acids 1-16 of β-amyloid peptide was run the next day to measure the amount of β-amyloid peptide produced.
The results of the β-amyloid peptide ELISA were fit to a standard curve and expressed as ng/mL β-amyloid peptide. […] All results are the mean and standard deviation of at least six replicate assays.

The subject of the next data set is 293 751 SWE cells. In words: Cytotoxicity (MTT) in 293 751 SWE cells. The format is cell-based, human. As to conditions: concentration not given. How it is done: as §4
Cytotoxic effects of the compounds were measured by a modification of the method of Hansen, et al.^17. To the cells remaining in the tissue culture plate was added 25 μL of a 3,(4,5-dimethylthiazol-2-yl)2,5-diphenyltetrazolium bromide (MTT) stock solution (5 mg/mL) to a final concentration of 1 mg/mL. Cells were incubated at 37° C. for one hour, and cellular activity was stopped by the addition of an equal volume of MTT lysis buffer (20% w/v sodium dodecylsulfate in 50% dimethylformamide, pH 4.7). Complete extraction was achieved by overnight shaking at room temperature. The difference in the OD562nm and the OD650nm was measured in a Molecular Device's UVmax microplate reader as an indicator of the cellular viability.

With `O=C1CC(Cc2cn(C(=O)c3ccc(Cl)cc3)c3ccccc23)=NN1` [A, 3-[1-(4-chlorobenzoyl)-3-indolylmethyl]-5-pyrazolone], the “inhibition of the toxicity of β-amyloid peptide to human neuronal cells” value (“inhibition … to human neuronal cells” for short) in the data set with human cortical neurons is reported as “at least 25%”. For the same compound, the “inhibition of the toxicity of β-amyloid peptide to rat neuronal cells” value (shortened to “inhibition … to rat neuronal cells”) in the data set with rat cortical neurons is given as “at least 10%”.

As for `O=C1CC(CCc2c[nH]c3ccccc23)=NN1C1CCCCC1` [D, 3-[3-indolylethyl]-1-cyclohexyl-5-pyrazolone], in the data set with human cortical neurons, the “inhibition … to human neuronal cells” value was “at least 25%”. Moreover, the “inhibition … to rat neuronal cells” value in the data set on rat cortical neurons is less than 10%.

As to `COc1ccc2c(c1)c(CC1=NN(c3ccccc3C)C(=O)C1)c(C)n2C(=O)c1ccc(Cl)cc1` [E], in the data set on human cortical neurons, the “inhibition … to human neuronal cells” value was “at least 25%”. In the data set on rat cortical neurons, the “inhibition … to rat neuronal cells” value was “at least 10%”.

With `COc1ccc2c(c1)c(CC1=NN(c3ccccc3)C(=O)C1)c(C)n2C(=O)c1ccc(Cl)cc1` [Example 8, 3-[1-(4-chlorobenzoyl)-5-methoxy-2-methyl-3-indolylmethyl]-1-phenyl-5-pyrazolone], the “reduction of β-amyloid peptide production as compared to control” value (from here on “reduction”) in data set [1] was “at least 20%”. In addition, in the data set with 293 751 SWE cells, the “cytotoxic effect on the 293 751 SWE cells” value (“cytotoxic effect” below) is “did not have a significant cytotoxic effect”. For the same compound, the “inhibition … to human neuronal cells” value with human cortical neurons is “at least 25%”. In the data set on rat cortical neurons, the “inhibition … to rat neuronal cells” value is on record as less than 10%.

As to `COc1ccc2c(c1)c(CC1=NNC(=O)C1)c(C)n2C(=O)c1ccc(Cl)cc1` [Example 15, 3-[1-(4-chlorobenzoyl)-5-methoxy-2-methyl-3-indolylmethyl]-5-pyrazolone], the “reduction” value in data set [1] was less than 20%. The “inhibition … to human neuronal cells” value in the data set on human cortical neurons is on record as “at least 25%”. Further, the “inhibition … to rat neuronal cells” value in the data set on rat cortical neurons is less than 10%.

For the compound `O=C1CC(Cc2c[nH]c3ccccc23)=NN1C1CCCCC1` [Example 18, 3-(3-indolylmethyl)-1-cyclohexyl-5-pyrazolone], the “inhibition … to human neuronal cells” value with human cortical neurons is “at least 25%”. For the same compound, the “inhibition … to rat neuronal cells” value in the data set on rat cortical neurons is on record as less than 10%.

Regarding `O=C1CC(Cc2cn(C(=O)c3ccc(Cl)cc3)c3ccccc23)=NN1C1CCCCC1` [Example 19, 3-[1-(4-chlorobenzoyl)-3-indolylmethyl]-1-cyclohexyl-5-pyrazolone], the “reduction” value in data set [1] is given as “at least 20%”. Besides, the “cytotoxic effect” value in the data set on 293 751 SWE cells was “did not have a significant cytotoxic effect”. Besides, in the data set with human cortical neurons, the “inhibition … to human neuronal cells” value is reported as “at least 25%”.

Take `COc1ccc(N2N=C(Cc3c(C)n(C(=O)c4ccc(Cl)cc4)c4ccc(OC)cc34)CC2=O)cc1` [Example 23, 3-[1-(4-chlorobenzoyl)-5-methoxy-2-methyl-3-indolylmethyl]-1-(4-methoxyphenyl)-5-pyrazolone]: the “reduction” value in data set [1] is listed as “at least 20%”. The “cytotoxic effect” value in the data set on 293 751 SWE cells is on record as “did not have a significant cytotoxic effect”. Besides, the “inhibition … to human neuronal cells” value in the data set on human cortical neurons is listed as “at least 25%”. Further, the “inhibition … to rat neuronal cells” value in the data set with rat cortical neurons is recorded as less than 10%.

Consider `COc1cccc(N2N=C(Cc3c(C)n(C(=O)c4ccc(Cl)cc4)c4ccc(OC)cc34)CC2=O)c1` [Example 24, 3-[1-(4-chlorobenzoyl)-5-methoxy-2-methyl-3-indolylmethyl]-1-(3-methoxyphenyl)-5-pyrazolone], for which the “reduction” value in data set [1] is “at least 20%”. Also, the “cytotoxic effect” value in the data set with 293 751 SWE cells is reported as “did not have a significant cytotoxic effect”. The “inhibition … to human neuronal cells” value in the data set with human cortical neurons was “at least 25%”. In addition, in the data set with rat cortical neurons, the “inhibition … to rat neuronal cells” value is recorded as “at least 10%”.

In the case of `COc1ccc2c(c1)c(CC1=NN(c3cccc(C)c3)C(=O)C1)c(C)n2C(=O)c1ccc(Cl)cc1` [Example 31, 3-[1-(4-chlorobenzoyl)-5-methoxy-2-methyl-3-indolylmethyl]-1-(3-methylphenyl)-5-pyrazolone], in data set [1], the “reduction” value is “at least 20%”. The “cytotoxic effect” value in the data set on 293 751 SWE cells is recorded as “did not have a significant cytotoxic effect”. For the same compound, the “inhibition … to human neuronal cells” value in the data set with human cortical neurons is “at least 25%”.

Regarding `COc1ccc2c(c1)c(CC1=NN(c3cccc(F)c3)C(=O)C1)c(C)n2C(=O)c1ccc(Cl)cc1` [Example 32, 3-[1-(4-chlorobenzoyl)-5-methoxy-2-methyl-3-indolylmethyl]-1-(3-fluorophenyl)-5-pyrazolone], the “reduction” value in data set [1] was “at least 20%”. In addition, the “cytotoxic effect” value with 293 751 SWE cells is recorded as “did not have a significant cytotoxic effect”. For the same compound, the “inhibition … to human neuronal cells” value in the data set with human cortical neurons is on record as “at least 25%”.

With `COc1ccc2c(c1)c(CC1=NN(C3CCCCC3)C(=O)C1=Cc1ccccc1)c(C)n2C(=O)c1ccc(Cl)cc1` [Example 45, 3-[1-(4-chlorobenzoyl)-5-methoxy-2-methyl-3-indolylmethyl]-1-cyclohexyl-4-benzylidene-5-pyrazolone], the “reduction” value in data set [1] is listed as less than 20%. Besides, in the data set with human cortical neurons, the “inhibition … to human neuronal cells” value is recorded as less than 25%.
